Measurements as given in ChEMBL document CHEMBL1201862, “PubChem BioAssay data set” (2004).
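All cell lines were grown in 96-well plates and treated with compound for 48 hours. GI50 = concentration required for 50% inhibition of growth.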 Calls of active or inactive are those of the source. No stated cut-off is given here; in the data, active = GI50 up to about 1.1 µM and inactive = higher.

Key:
Experiment in all cases: inhibition of tumour cell growth, NCI panel, 48 h
[1] = system: 786-0
[2] = system: CAKI-1
[3] = system: COLO 205
[4] = system: EKVX
[5] = system: HL-60
[6] = system: M19-MEL
[7] = system: MDA-MB-435
[8] = system: NCI-H23
[9] = system: NCI-H522
[10] = system: OVCAR-3
[11] = system: PC-3
[12] = system: RPMI-8226
[13] = system: RXF 393
[14] = system: SF-268
[15] = system: SF-539
[16] = system: SK-MEL-28
[17] = system: SK-MEL-2
[18] = system: SNB-78
[19] = system: T47D
[20] = system: UACC-257

COc1ccccc1/C=C1\CCC(Cc2ccccc2)(CN(C)C)C1=O (stereo not given)
GI50 [1]: 1.43 µM (inactive)
GI50 [2]: 2.38 µM (inactive)
GI50 [3]: 1.37 µM (inactive)
GI50 [4]: 3.35 µM (inactive)
GI50 [5]: 0.471 µM (active)
GI50 [6]: 2.98 µM (inactive)
GI50 [7]: 1.07 µM (active)
GI50 [8]: 6.43 µM (inactive)
GI50 [9]: 0.597 µM (active)
GI50 [10]: 0.942 µM (active)
GI50 [11]: 1.03 µM (active)
GI50 [12]: 0.612 µM (active)
GI50 [13]: 7.93 µM (inactive)
GI50 [14]: 4.85 µM (inactive)
GI50 [15]: 1.52 µM (inactive)
GI50 [16]: 20.3 µM (inactive)
GI50 [17]: 6.53 µM (inactive)
GI50 [18]: 2.13 µM (inactive)
GI50 [19]: 22.2 µM (inactive)
GI50 [20]: 12.3 µM (inactive)

CC(C)NC(=O)OCc1c(COC(=O)NC(C)C)c(-c2ccc(Cl)c(Cl)c2)n2c1CCC2
GI50 [1]: 20.7 µM (inactive)
GI50 [2]: 20.9 µM (inactive)
GI50 [3]: 52.8 µM (inactive)
GI50 [4]: 57.1 µM (inactive)
GI50 [5]: 26.6 µM (inactive)
GI50 [6]: 33.7 µM (inactive)
GI50 [7]: > 100 µM (inactive)
GI50 [8]: 46.9 µM (inactive)
GI50 [9]: > 62.4 µM (inactive)
GI50 [10]: 54 µM (inactive)
GI50 [11]: > 80.7 µM (inactive)
GI50 [12]: 17.9 µM (inactive)
GI50 [13]: 31.3 µM (inactive)
GI50 [14]: 43.5 µM (inactive)
GI50 [15]: 43.5 µM (inactive)
GI50 [16]: 65 µM (inactive)
GI50 [17]: 44.2 µM (inactive)
GI50 [18]: 21.2 µM (inactive)
GI50 [19]: 50.5 µM (inactive)
GI50 [20]: 49.7 µM (inactive)
